Values of other authors in US20090062239A1, “THROMBIN RECEPTOR ANTAGONISTS AS PROPHYLAXIS TO COMPLICATIONS FROM CARDIOPULMONARY SURGERY” (Schering Corporation, priority 2005, published 2009).

What was measured:
[1] = vein grafts closing off between two weeks and one year after CABG surgery
[2] = treated patients, cardiac/coronary surgery
[3] = high-risk patients undergoing primary CABG, those on aspirin, reoperative bypass

Compound	risk for postoperative hemorrhage [2]	also measured
CC(=O)Oc1ccccc1C(=O)O [aspirin]		reduction of later vein graft closings [1]: 50%
COC(=O)[C@H](c1ccccc1Cl)N1CCc2sccc2C1 [clopidogrel]	greater risk	
Aprotinin		postoperative blood loss [3]: significantly decreases; transfusion requirements (both units and number of patients) [3]: significantly decreases
abciximab	greater risk	
low-molecular weight heparin	greater risk	
